The nature of data set [1]: Rat pharmacokinetics. The data set is classed as in vivo. Also on record: AUC(0-t) / AUC(0-inf): concentration or dose not given beside the values. The following applies: in vivo; for AUC(0-inf): read-out: AUCINF—obs; for MRT inf: read-out: MRTINF—obs. Here is the method:
A1 10 μL of a plasma sample was taken in a centrifuge tube and 100 μL of methanol:acetonitrile (1:1, v/v) was added, vortexed for 1 min, centrifugated (14000 rpm) for 5 min, and 50 μL supernatant was taken, mixed with equal volume of water, and analysised after vortex mixing. The linear range of A1 is: 0.1-300 ng/mL for oral administration and 1-3000 ng/mL for intravenous injection.
A55 10 μL of a plasma sample was taken in a centrifuge tube and 100 μL of methanol:acetonitrile (1:1, v/v) was added, vortexed for 1 min, centrifugated (14000 rpm) for 5 min, and 50 μL supernatant was taken, mixed with equal volume of water, and analysised after vortex mixing. The linear range of A55 is: 0.1-300 ng/mL for oral administration and 0.3-3000 ng/mL for intravenous injection.

Data set [2] concerns Syrian golden hamsters (high-fat diet, hyperlipidemia model). Description: In vivo lipid-lowering activity in high-fat diet golden hamsters. The following applies: for CHOL / HDL-C / LDL-C / TG: high-fat diet, serum. Also on record: species or system Syrian golden hamster. Here is the method:
After adaptively feeding Syrian golden hamsters (male, 80-100 g) for a week, all hamsters were fed with high-fat diet. Two weeks later, blood was collected from the orbital venous plexus, serum was separated, and levels of total cholesterol (TC), triglyceride (TG), high-density lipoprotein (HDL-C) and low-density lipoprotein (LDL-C) in serum were measured. They were evenly grouped according to blood lipid levels into […]: model control group, A1 intragastric administration group, A1 intraperitoneal administration group, A5 intragastric administration group, A5 intraperitoneal administration group, A55 intragastric administration group, A55 intraperitoneal administration group, B5 intragastric administration group, B5 intraperitoneal administration group, and the animals in each group were continued to be administered with high fat diet. […] […] Blood lipid levels and body weights were measured every 10 days. After three weeks, the animals were sacrificed and the liver was stored in a −80° C. refrigerator.

In data set [3] the target is T1, α1A-adrenergic receptor (α1A-AR) (Homo sapiens, UniProt P35348).
T1 construct: expressed in transfected cells; host or cells: HEK293
T1 sequence (P35348 1-466): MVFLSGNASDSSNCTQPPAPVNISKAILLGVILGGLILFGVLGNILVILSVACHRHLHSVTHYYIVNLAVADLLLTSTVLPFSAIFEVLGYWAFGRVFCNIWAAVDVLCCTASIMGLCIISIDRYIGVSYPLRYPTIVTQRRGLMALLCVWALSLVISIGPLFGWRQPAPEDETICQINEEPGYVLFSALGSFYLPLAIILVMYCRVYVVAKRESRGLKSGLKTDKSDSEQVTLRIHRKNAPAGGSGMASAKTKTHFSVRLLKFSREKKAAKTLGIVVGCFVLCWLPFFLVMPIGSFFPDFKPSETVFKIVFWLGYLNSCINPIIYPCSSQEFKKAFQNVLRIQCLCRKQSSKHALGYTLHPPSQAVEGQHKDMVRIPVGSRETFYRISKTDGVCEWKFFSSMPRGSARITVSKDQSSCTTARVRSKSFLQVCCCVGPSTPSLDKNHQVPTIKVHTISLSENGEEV
Nature of the data set: Antagonistic activity on α1A-AR: calcium fluorescence in HEK293 cells stimulated with phenylephrine. It is filed as cell-based. The following applies: HEK293 cells expressing α1A-AR; agonist phenylephrine 30 nM; calcium fluorescence; read-out: α1A-AR/IC50. The method, then:
HEK293 cells stably expressing α1A-adrenergic receptor (α1A-AR) and G protein […] were seeded in 96-well plates. After 24 hours of culture, the medium was removed, and 40 μL of Hank's balanced salt solution (HBSS: containing 5.4 mM KCl, 0.3 mM Na2HPO4, 0.4 mM KH2PO4, 4.2 mM NaHCO3, 1.3 mM CaCl2, 0.5 mM MgCl2, 0.6 mM MgSO4, 137 mM NaCl, 5.6 mM D-glucose and 250 μM sulfinpyridone, pH 7.4) containing 2 μM of MFluo-4AM was added to each well, and incubated for 45 minutes in an incubator. The dye was aspirated and 50 μL of HBSS containing a test compound or 1% DMSO (negative control) was added and incubated for 10 minutes at room temperature, and then read with Flex Station 3 microplate reader. At the specified time point, 25 μL of agonist phenylephrine (final concentration 30 nM) will be automatically added by the detector into the reaction system, and simultaneously stimulated with 485 nm light, and the change in intensity of fluorescence caused by the change in the intracellular calcium ion concentration was detected at 525 nm. […] The response rate of different doses of the same drug was analyzed by GraphPad Prism software to obtain a dose-response curve and the IC50 value was measured. Each experiment was performed in […].

Another data set relates to HepG2 cells. Description: In vitro lipid-lowering activity: DiI-LDL uptake in HepG2 cells. The following applies: Homo sapiens, test compound 5 uM, 24 h, DiI-LDL 20 ug/ml, 3 h, FLU of sample group/FLU of blank group x100%, read-out: LDL uptake rate. The data set is classed as cell-based. The method, then:
HepG2 cells were inoculated in 24-well plates, cultured in DMEM containing 10% FBS for 24 h or 48 h, and then transferred to DMEM containing 2% defatted serum and cultivated for 24 h. The old culture solution was discarded and replaced with new 2% defatted serum DMEM, and a test compound (the working concentration of which is 5 uM, triplicate for each sample) was added and incubated for 24 h. The old culture solution was abandoned and DMEM containing DiI-LDL (20 ug/ml) was added (300 ul/per 24 wells), incubated for 3 h. DMEM containing DiI-LDL was discarded, and cells were rinsed twice with PBS containing 0.4% BSA, and 3 times with PBS to remove excess DiI-LDL. Isopropanol was added (500 ul/per well of a 24-well plate), and was kept in darkness. After shaken for 20 minutes, 200 ul of supernatant was sucked to a black fluorescent plate, and fluorescence intensity (FLU) was detected at excitation light 520 nm and emission light 578 nm. The experimental results were calculated: LDL uptake rate=(FLU value of sample group to be tested/FLU value of blank group)×100%.

Data set [4] is described as follows: Rat pharmacokinetics. Set-up: AUC(0-t) / AUC(0-inf): concentration or dose not given beside the values. The following applies: in vivo, ip, i.p; for AUC(0-inf): read-out: AUCINF—obs; for MRT inf: read-out: MRTINF—obs.
Where [5] appears, read: abdominal (intraperitoneal) 30 mg/kg once a day for three weeks.
[6] abbreviates: oral (intragastric) 30 mg/kg once a day for three weeks.

Read-outs that look alike come from different tables or passages of the source.

The Cmax is the maximum level reached in the sampled fluid or tissue. For orientation: Tmax means the time from dosing to the highest level. One may read the half-life as how long it takes for the measured level to halve. As usually defined, the AUC(0-t) is the area under the concentration-time curve up to a stated or last time point. In general, bioavailability refers to dose-corrected exposure relative to a reference, in per cent. Take `COc1ccc2[nH]c3c(c2c1)CC1c2cc(OC)c(OCc4ccc(C(F)(F)F)cc4)cc2CCN1C3` (centres unmarked) [Example C47, 2,12-dimethoxy-3-((4-(trifluoromethyl)benzyl)oxy)-5,6,8,9,14,14a-hexahydroindolo[3′,2′:4,5]pyridine[2,1-a]isoquinoline]: in the data set “Rat pharmacokinetics [1]” (ip, i.p), the peak level (Cmax) was 0.276 µg/mL, the Tmax worked out at 24 h and the half-life was 51.2 h. In addition, in “Rat pharmacokinetics [1]” (po, i.g), the AUC(0-t) was determined as 9.25 µg·h/mL, the peak level (Cmax) was 0.251 µg/mL, the Tmax was 4 h and the bioavailability turned out to be 31%. Also, in the data set “Rat pharmacokinetics [1]” (po, i.g), the half-life was 38.2 h, the AUC(0-inf) was found to be 564 µg·h/mL and the MRT inf was 56.1 h. The TC in data set [2] (Dose 30, oral) was 19.73 ± 6.44 mmol/L. Further, the IC50 in data set [3] was greater than 100 µM. In addition, the activity at 5 µM in the data set on HepG2 cells came out at 150%. Further, in “Rat pharmacokinetics [4]”, the AUC(0-t) was found to be 14.9 µg·h/mL, the AUC(0-inf) worked out at 1120 µg·h/mL and the MRT inf was determined as 66.4 h.
`COc1ccc2[nH]c3c(c2c1)CC1c2cc(OCc4ccc(F)cc4)c(OC)cc2CCN1C3c1ccc(F)cc1` (centres unmarked) [Example B5, 2-((4-fluorobenzyl)oxo)-8-(4-fluorophenyl)-3,12-dimethoxy-5,6,8,9,14,14a-hexahydroindole[3′,2′:4,5]pyridine[2,1-a]isoquinoline]: in data set [2] (setting [5]), the CHOL is 14.92 mmol/L, the HDL-C came to 2.90 mmol/L, the LDL-C is given as 7.89 mmol/L and the TG was 16.14 mmol/L. In addition, in data set [2] (setting [6]), the CHOL was 14.79 mmol/L, the HDL-C is 3.99 mmol/L, the LDL-C is given as 7.66 mmol/L and the TG was found to be 11.94 mmol/L. Also, the “contents of cholesterol (CHOL), triglyceride (TG) and low density lipoprotein (LDL-C) in the blood” value in data set [2] (hyperlipidemia model) is on record as “significantly reduced”. In addition, the IC50 in data set [3] was greater than 100 µM. Besides, the activity at 5 µM in the data set on HepG2 cells came to 134%.
With `COc1ccc2[nH]c3c(c2c1)CC1c2cc(OC)c(OCc4ccccc4)cc2CCN1C3c1ccc(F)cc1` (centres unmarked) [Example B55, 3-(benzyloxy)-8-(4-fluorophenyl)-2,12-dimethoxy-5,6,8,9,14,14a-hexahydroindole[3′,2′:4,5]pyridine[2,1-a]isoquinoline], the IC50 in data set [3] was greater than 100 µM. The activity at 5 µM with HepG2 cells was found to be 125%.
Regarding `COc1ccc2[nH]c3c(c2c1)CC1c2cc(OC)c(OCc4ccc(C)cc4)cc2CCN1C3` (centres unmarked) [Example C59], in data set [3], the IC50 was greater than 100 µM. For the same compound, the activity at 5 µM in the data set with HepG2 cells turned out to be 147%.
Take `COc1ccc2c(c1)c1c(n2CO)CN2CCc3cc(OCc4cccc(F)c4)c(OC)cc3C2C1` (centres unmarked) [Example A61, (3-((3-fluorobenzyl)oxy)-2,12-dimethoxy-5,6,14,14a-tetrahydroindolo[3′,2′:4,5]pyridine[2,1-a]isoquinoline-9(8H)-yl)methanol]: the TC in data set [2] (Dose 30, oral) is given as 37.11 ± 11.19 mmol/L; in data set [2] (Dose 100, oral), 22.57 ± 6.37 mmol/L. Further, the IC50 in data set [3] was 4.53 µM. Moreover, the activity at 5 µM with HepG2 cells turned out to be 165%.
For the compound `COc1ccc2[nH]c3c(c2c1)CC1c2cc(OCc4ccc(C(F)(F)F)cc4)c(OC)cc2CCN1C3` (centres unmarked) [Example C3, 3,12-dimethoxy-2-((4-(trifluoromethyl)benzyl)oxy)-5,6,8,9,14,14a-hexahydroindolo[3′,2′:4,5]pyridine[2,1-a]isoquinoline], the half-life in “Rat pharmacokinetics [1]” (ip, i.p) was 18.5 h. Besides, in “Rat pharmacokinetics [1]” (po, i.g), the AUC(0-t) worked out at 3.96 µg·h/mL, the peak level (Cmax) was 0.297 µg/mL, the Tmax amounted to 4 h and the bioavailability came out at 57.2%. Besides, in “Rat pharmacokinetics [1]” (po, i.g), the half-life is 6.53 h, the AUC(0-inf) was determined as 4.34 µg·h/mL and the MRT inf came out at 7.74 h. In addition, the TC in data set [2] (Dose 30, oral) is recorded as 25.08 ± 16.98 mmol/L. Besides, the TC in data set [2] (Dose 100, oral) came out at 21.17 ± 3.89 mmol/L. For the same compound, in the data set “Rat pharmacokinetics [4]”, the AUC(0-t) came to 3.47 µg·h/mL, the AUC(0-inf) worked out at 9.36 µg·h/mL and the MRT inf is 15.3 h.
As to `COc1ccc2[nH]c3c(c2c1)CC1c2cc(OC)c(OCc4ccccc4F)cc2CCN1C3` (centres unmarked) [Example C53, 3-((2-Fluorobenzyl)oxo)-2,12-dimethoxy-5,6,8,9,14,14a-hexahydroindole[3′,2′:4,5]pyridine[2,1-a]isoquinoline], the IC50 in data set [3] was found to be 17.5 µM. Moreover, the activity at 5 µM in the data set with HepG2 cells turned out to be 112%.

The record behind these values is patent US10927107B2, “Phenyl [a]indole[2,3-g]quinolizine compounds, preparation method therefor, pharmaceutical composition, and applications thereof” (Shanghai Institute of Materia Medica, Chinese Academy of …, priority 2016, dated 2021).
